Where “and” joins values, the source holds several entries; their conditions need not be identical. Identical values can stand only once. Like-named read-outs stand apart in the source and are kept apart here.
Key:
[1] = tested on: Staphylococcus aureus; test: agar-dilution MIC; assay type: cell-based
[2] = tested on: Hemophilus influenzae; test: agar-dilution MIC; assay type: cell-based; details: Table 17
[3] = tested on: Bacteroides fragilis; test: agar-dilution MIC; assay type: cell-based; details: Table 14
Source text: (§1) The agar-dilution procedure described by the International Collaborative study (ICS) group was used to determine the minimum inhibitory concentrations (MIC's).

[4] = tested on: Staphylococcus epidermidis; test: agar-dilution MIC; assay type: cell-based; details: Table 17
Source text: as §1

[5] = tested on: Streptococcus pneumoniae; test: agar-dilution MIC; assay type: cell-based; details: Streptococcus pneumoniae Park I; Table 17
Source text: as §1

[6] = tested on: Streptococcus pyogenes; test: agar-dilution MIC; assay type: cell-based; details: Streptococcus pyogenes C203; Table 17
Source text: as §1

[7] = tested on: Streptococcus sp. (Group D); test: agar-dilution MIC; assay type: cell-based; details: Table 17
Source text: as §1

[8] = tested on: Bacteroides thetaiotaomicron; assay type: cell-based; details: Bacteroides thetaiotaomicron 1438; Table 14
Source text: as §1

[9] = tested on: Propionibacterium acnes; test: agar-dilution MIC; assay type: cell-based; details: Propionibacterium acnes 79; Table 14
Source text: Antibiotic A41030 factors A, B and C have also been tested and found to be active against a genus of anaerobic bacteria identified as Propionibacterium acnes.

[10] = tested on: Clostridium difficile; assay type: cell-based
[11] = tested on: Clostridium perfringens; assay type: cell-based; details: Clostridium perfringens 81; Table 14
[12] = tested on: Clostridium septicum; test: agar-dilution MIC; assay type: cell-based; details: Clostridium septicum 1128; Table 14
[13] = tested on: Eubacterium aerofaciens; test: agar-dilution MIC; assay type: cell-based; details: Eubacterium aerofaciens 1235; Table 14
[14] = tested on: Peptococcus asaccharolyticus; test: agar-dilution MIC; assay type: cell-based; details: Peptococcus asaccharolyticus 1302; Table 14
Protocol: The MIC values were determined by the agar-dilution method, and are recorded in Table 15, which follows.

[15] = tested on: Peptostreptococcus anaerobius; test: agar-dilution MIC; assay type: cell-based; details: Peptostreptococcus anaerobius 1428; Table 14
[16] = tested on: Peptostreptococcus intermedius; test: agar-dilution MIC; assay type: cell-based; details: Peptostreptococcus intermedius 1264; Table 14
[17] = tested on: Bacteroides melaninogenicus; test: agar-dilution MIC; assay type: cell-based; details: Bacteroides melaninogenicus 2736; Table 14
[18] = tested on: Fusobacterium symbiosum; test: agar-dilution MIC; assay type: cell-based; details: Fusobacterium symbiosum 1470; Table 14
[19] = tested on: Fusobacterium necrophorum; test: agar-dilution MIC; assay type: cell-based; details: Fusobacterium necrophorum 6054A; Table 14
[20] = tested on: S. pneumoniae; test: experimental bacterial infection in mice; assay type: in vivo; details: two doses subcutaneously
Protocol: (§2) All of the A41030 factors tested have shown in vivo antimicrobial activity against experimental bacterial infections. When two doses of test compound were administered subcutaneously to mice in illustrative infections, the activity observed is measured as an ED50 value [effective dose in mg./kg. to protect fifty percent of the test animals: See Warren Wick, et al., J. Bacteriol. 81, 233-235 (1961)].

[21] = tested on: Staph. aureus; test: experimental bacterial infection in mice; assay type: in vivo; details: two doses subcutaneously
Protocol: as §2

[22] = tested on: S. pyogenes; test: experimental bacterial infection in mice; assay type: in vivo; details: S. pyogenes infection in mice; two doses subcutaneously
[23] = electrometric titration; assay type: physicochemical; details: electrometric titration in 66% dimethylformamide in water
Source text: Antibiotic A41030 factor A is a white, crystalline solid.

[24] = solubility; assay type: physicochemical
[25] = tested on: Bacteroides corrodens; test: agar-dilution MIC; assay type: cell-based; details: Bacteroides corrodens 1874; Table 14
[26] = tested on: Bacteroides vulgatis; test: agar-dilution MIC; assay type: cell-based; details: Bacteroides vulgatis 1211; Table 14
[27] = tested on: Peptococcus prevoti; test: agar-dilution MIC; assay type: cell-based; details: Peptococcus prevoti 1281; Table 14
[28] = tested on: Klebsiella pneumoniae; test: agar-dilution MIC; assay type: cell-based; details: Klebsiella pneumoniae X26; Table 17
Source text: The results after reading the which follows.

[29] = Staphylococcus epidermidis EPI1
[30] = Clostridium difficile 78, Table 16
[31] = Clostridium difficile 107B, Table 16
[32] = Clostridium difficile 111F, Table 16
[33] = Clostridium difficile 1153, Table 16
[34] = Clostridium difficile 2634, Table 16
[35] = Clostridium difficile 3424-5B, Table 16
[36] = Clostridium difficile 3816, Table 16
[37] = Clostridium difficile 6890, Table 16
[38] = Clostridium difficile 8484, Table 16
[39] = Clostridium difficile A-194, Table 16
[40] = Clostridium difficile A-195, Table 16
[41] = Clostridium difficile A-196, Table 16
[42] = Clostridium difficile A-279, Table 16
[43] = Clostridium difficile A-281, Table 16
[44] = Clostridium difficile WAL-2112, Table 16
[45] = Clostridium difficile WAL-3657, Table 16
[46] = Clostridium difficile WAL-4268, Table 16

A41030 factor F
MIC ([1]; Staphylococcus aureus S13E, Table 17): 1 µg/mL | MIC ([1]; in µg/mL): 0.5 and 1 | MIC ([2]; Haemophilus influenzae 76): 32 µg/mL | MIC ([2]; Haemophilus influenzae C.L.): 32 µg/mL | MIC ([3]; Bacteroides fragilis 111): 32 µg/mL | MIC ([3]; Bacteroides fragilis 1877): 32 µg/mL | MIC ([3]; Bacteroides fragilis 1936B): 32 µg/mL | MIC [4, 29]: 0.25 µg/mL | MIC [5]: 2 µg/mL | MIC [6]: 2 µg/mL | MIC ([7]; Streptococcus sp. Group D 9960): 4 µg/mL | MIC ([7]; Streptococcus sp. Group D X66): 4 µg/mL | MIC [8]: 64 µg/mL | MIC [9]: 1.0 µg/mL | MIC [10, 30]: 1.0 µg/mL | MIC [10, 31]: 1.0 µg/mL | MIC [10, 32]: 2 µg/mL | MIC [10, 33]: 2 µg/mL | MIC [10, 34]: 2 µg/mL | MIC [10, 35]: 1.0 µg/mL | MIC [10, 36]: 1.0 µg/mL | MIC [10, 37]: 1.0 µg/mL | MIC [10, 38]: 1.0 µg/mL | MIC [10, 39]: 1.0 µg/mL | MIC [10, 40]: 1.0 µg/mL | MIC [10, 41]: 2 µg/mL | MIC [10, 42]: 1.0 µg/mL | MIC ([10]; Clostridium difficile A-280, Table 16): 1.0 µg/mL | MIC [10, 43]: 2 µg/mL | MIC [10, 44]: 1.0 µg/mL | MIC [10, 45]: 1.0 µg/mL | MIC [10, 46]: 1.0 µg/mL | MIC [11]: 1.0 µg/mL | MIC [12]: 1.0 µg/mL | MIC [13]: 1.0 µg/mL | MIC [14]: ≤ 0.25 µg/mL | MIC [15]: 32 µg/mL | MIC [16]: 1.0 µg/mL | MIC [17]: 1.0 µg/mL | MIC [18]: 1.0 µg/mL | MIC [19]: 1.0 µg/mL | ED50 [20]: > 5.0 mg/kg | ED50 [21]: < 0.31 mg/kg | ED50 [22]: > 5.0 mg/kg | possibly additional pKa's [23]: > 10 | solubility (solvents) [24]: soluble in the same solvents as factor A | MIC [25]: 32 µg/mL | MIC [26]: 32 µg/mL | MIC [27]: 32 µg/mL

A41030 factor G
MIC ([2]; Haemophilus influenzae 76): 32 µg/mL | MIC ([2]; Haemophilus influenzae C.L.): 32 µg/mL | MIC ([3]; Bacteroides fragilis 111): 32 µg/mL | MIC ([3]; Bacteroides fragilis 1877): 32 µg/mL | MIC ([3]; Bacteroides fragilis 1936B): 64 µg/mL | MIC [4, 29]: 0.5 µg/mL | MIC ([4]; Staphylococcus epidermidis EPI2): 0.5 µg/mL | MIC [5]: 2 µg/mL | MIC [6]: 2 µg/mL | MIC ([7]; Streptococcus sp. Group D 9960): 4 µg/mL | MIC ([7]; Streptococcus sp. Group D X66): 4 µg/mL | MIC [8]: 64 µg/mL | MIC [9]: 1.0 µg/mL | MIC [10, 30]: 1.0 µg/mL | MIC [10, 31]: 1.0 µg/mL | MIC [10, 32]: 1.0 µg/mL | MIC [10, 33]: 1.0 µg/mL | MIC [10, 34]: 1.0 µg/mL | MIC ([10]; Clostridium difficile 2994, Table 14): 2 µg/mL | MIC [10, 35]: 1.0 µg/mL | MIC [10, 36]: 1.0 µg/mL | MIC ([10]; Clostridium difficile 3950D, Table 16): 1.0 µg/mL | MIC [10, 37]: 1.0 µg/mL | MIC [10, 38]: 1.0 µg/mL | MIC [10, 39]: 1.0 µg/mL | MIC [10, 40]: 1.0 µg/mL | MIC [10, 41]: 1.0 µg/mL | MIC [10, 42]: 1.0 µg/mL | MIC [10, 43]: 1.0 µg/mL | MIC [10, 44]: 1.0 µg/mL | MIC [10, 45]: 1.0 µg/mL | MIC [10, 46]: 1.0 µg/mL | MIC [11]: 2 µg/mL | MIC [12]: 2 µg/mL | MIC [13]: 2 µg/mL | MIC [14]: 1.0 µg/mL | MIC [15]: ≤ 0.5 µg/mL | MIC [16]: 2 µg/mL | MIC [17]: 64 µg/mL | MIC [18]: 2 µg/mL | MIC [19]: 2 µg/mL | MIC [28]: 64 µg/mL | possibly additional pKa's [23]: > 10.5 | solubility (solvents) [24]: soluble in the same solvents as is factor A | MIC [25]: 32 µg/mL | MIC [26]: 64 µg/mL | MIC [27]: 2 µg/mL
